≈ marks a conversion by molar mass, not a printed value.
Tests used:
Madurella mycetomatis [1] = experiment: Antifungal activity against Madurella mycetomatis MM55 by XTT assay; type: functional, organism-based
Madurella mycetomatis [2] = experiment: Antifungal activity against Madurella mycetomatis CBS247.48 by XTT assay; type: functional
Madurella mycetomatis [3] = experiment: Antifungal activity against Madurella mycetomatis MM50 by XTT assay; type: functional
Madurella mycetomatis [4] = experiment: Antifungal activity against Madurella mycetomatis SO1 by XTT assay; type: functional
[5] = Selectivity index, ratio of IC50 for mouse NIH3T3 cells to IC50 for Madurella mycetomatis MM55; type: toxicity; conditions: read-out: Ratio IC50
Madurella mycetomatis [6] = experiment: Antifungal activity against Madurella mycetomatis AL1 by XTT assay; type: functional
Madurella mycetomatis [7] = experiment: Antifungal activity against Madurella mycetomatis P1 by XTT assay; type: functional
Madurella mycetomatis [8] = experiment: Antifungal activity against Madurella mycetomatis I11 by XTT assay; type: functional
Madurella mycetomatis [9] = experiment: Antifungal activity against Madurella mycetomatis I3 by XTT assay; type: functional
Madurella mycetomatis [10] = experiment: Antifungal activity against Madurella mycetomatis Peru72012 by XTT assay; type: functional
[11] = Cytotoxicity against mouse NIH3T3 cells incubated for 5 days by MTT assay; type: toxicity, cell-based
Madurella mycetomatis [12] = experiment: Antifungal activity against Madurella mycetomatis I1 by XTT assay; type: functional

MIC (Madurella mycetomatis [2]) [µM] | MIC (Madurella mycetomatis [3]) [µM] | MIC (Madurella mycetomatis [4]) [µM] | MIC (Madurella mycetomatis [6]) [µM] | MIC (Madurella mycetomatis [7]) [µM] | MIC (Madurella mycetomatis [8]) [µM] | MIC (Madurella mycetomatis [9]) [µM] | MIC (Madurella mycetomatis [10]) [µM] | MIC (Madurella mycetomatis [1]; Madurella mycetomatis, MM55) [µM] | MIC (Madurella mycetomatis [12]) [µM] | Compound | IC50 (Madurella mycetomatis [1]; Madurella mycetomatis, MM55) [µM] | selectivity ratio [5] | IC50 at 5 days [11] [µM] | IC50 (Madurella mycetomatis [1]) [µM]
8 (≈ 3 µg/mL) | 8 (≈ 3 µg/mL) | 8 (≈ 3 µg/mL) | 8 (≈ 3 µg/mL) | 8 (≈ 3 µg/mL) | 4 (≈ 1.5 µg/mL) | 8 (≈ 3 µg/mL) | 8 (≈ 3 µg/mL) | 8 (≈ 3 µg/mL) | 8 (≈ 3 µg/mL) | CN1CCN(c2cc(-c3ccsc3)c3nc(-c4ccccc4)cn3n2)CC1 | 3.5 | 5.1 | 10.2 | 
8 (≈ 3.24 µg/mL) | 8 (≈ 3.24 µg/mL) | 16 (≈ 6.49 µg/mL) | 8 (≈ 3.24 µg/mL) | 8 (≈ 3.24 µg/mL) | 8 (≈ 3.24 µg/mL) | 8 (≈ 3.24 µg/mL) | 8 (≈ 3.24 µg/mL) | 4 (≈ 1.62 µg/mL) | 8 (≈ 3.24 µg/mL) | OCCN1CCN(c2cc(-c3ccsc3)c3nc(-c4ccccc4)cn3n2)CC1 | 2.6 | 3.4 | 13.1 | 
2 (≈ 1.41 µg/mL) | 1 (≈ 0.706 µg/mL) | 0.25 (≈ 0.176 µg/mL) | 0.06 (≈ 0.0423 µg/mL) | 0.25 (≈ 0.176 µg/mL) | 0.5 (≈ 0.353 µg/mL) | 1 (≈ 0.706 µg/mL) | 0.5 (≈ 0.353 µg/mL) | 0.5 (≈ 0.353 µg/mL) | 8 (≈ 5.65 µg/mL) | CCC(C)n1ncn(-c2ccc(N3CCN(c4ccc(OCC5COC(Cn6cncn6)(c6ccc(Cl)cc6Cl)O5)cc4)CC3)cc2)c1=O (stereo unspecified) [ITRACONAZOLE] | 1.1 | 1.4 | 13.7 | 
4 (≈ 1.95 µg/mL) | 4 (≈ 1.95 µg/mL) | 4 (≈ 1.95 µg/mL) | 4 (≈ 1.95 µg/mL) | 4 (≈ 1.95 µg/mL) | 8 (≈ 3.9 µg/mL) | 8 (≈ 3.9 µg/mL) | 4 (≈ 1.95 µg/mL) | 8 (≈ 3.9 µg/mL) | 4 (≈ 1.95 µg/mL) | CN1CCN(c2cc(-c3cnc(N4CCN(C)CC4)nc3)c3nc(-c4ccc(F)cc4)cn3n2)CC1 | 2.9 | 6.8 | 12.3 | 
8 (≈ 3.15 µg/mL) | 8 (≈ 3.15 µg/mL) | 8 (≈ 3.15 µg/mL) | 8 (≈ 3.15 µg/mL) | 8 (≈ 3.15 µg/mL) | 8 (≈ 3.15 µg/mL) | 8 (≈ 3.15 µg/mL) | 16 (≈ 6.3 µg/mL) | 8 (≈ 3.15 µg/mL) | 8 (≈ 3.15 µg/mL) | CN1CCN(c2cc(-c3ccsc3)c3nc(-c4ccccc4F)cn3n2)CC1 | 1.9 | 3.7 | 14.6 | 
16 (≈ 6.54 µg/mL) | 16 (≈ 6.54 µg/mL) | 16 (≈ 6.54 µg/mL) | 16 (≈ 6.54 µg/mL) | 8 (≈ 3.27 µg/mL) | > 16 | 16 (≈ 6.54 µg/mL) | 8 (≈ 3.27 µg/mL) | 8 (≈ 3.27 µg/mL) | 8 (≈ 3.27 µg/mL) | CN1CCN(c2cc(-c3cccc4[nH]ccc34)c3nc(-c4ccccc4)cn3n2)CC1 [listing 1 of 2 here] |  | 2.8 | 9.9 | 4.8
4 (≈ 1.69 µg/mL) | 8 (≈ 3.39 µg/mL) | 8 (≈ 3.39 µg/mL) | 8 (≈ 3.39 µg/mL) | 4 (≈ 1.69 µg/mL) | 4 (≈ 1.69 µg/mL) | 8 (≈ 3.39 µg/mL) | 8 (≈ 3.39 µg/mL) | 4 (≈ 1.69 µg/mL) | 8 (≈ 3.39 µg/mL) | OCCN1CCN(c2cc(-c3ccsc3)c3nc(-c4cccc(F)c4)cn3n2)CC1 | 0.9 | 8.2 | 10.7 | 
4 (≈ 1.95 µg/mL) | 4 (≈ 1.95 µg/mL) | 4 (≈ 1.95 µg/mL) | 4 (≈ 1.95 µg/mL) | 4 (≈ 1.95 µg/mL) | 4 (≈ 1.95 µg/mL) | 16 (≈ 7.8 µg/mL) | 4 (≈ 1.95 µg/mL) | 16 (≈ 7.8 µg/mL) | 4 (≈ 1.95 µg/mL) | CN1CCN(c2cc(-c3cnc(N4CCN(C)CC4)nc3)c3nc(-c4ccccc4F)cn3n2)CC1 | 4 | 2 | 9.6 | 
8 (≈ 3.39 µg/mL) | 4 (≈ 1.69 µg/mL) | 8 (≈ 3.39 µg/mL) | 8 (≈ 3.39 µg/mL) | 8 (≈ 3.39 µg/mL) | 4 (≈ 1.69 µg/mL) | 8 (≈ 3.39 µg/mL) | 8 (≈ 3.39 µg/mL) | 8 (≈ 3.39 µg/mL) | 8 (≈ 3.39 µg/mL) | OCCN1CCN(c2cc(-c3ccsc3)c3nc(-c4ccccc4F)cn3n2)CC1 | 1.3 | 4 | 10.5 | 
16 (≈ 6.26 µg/mL) | > 16 | > 16 | > 16 | 16 (≈ 6.26 µg/mL) | > 16 | > 16 | > 16 | > 16 | 16 (≈ 6.26 µg/mL) | CN1CCN(c2cc(-c3cnn(C)c3)c3nc(-c4ccc(F)cc4)cn3n2)CC1 [listing 1 of 2 here] |  | 3.1 | 9 | 3.8
2 (≈ 0.975 µg/mL) | 4 (≈ 1.95 µg/mL) | 4 (≈ 1.95 µg/mL) | 4 (≈ 1.95 µg/mL) | 4 (≈ 1.95 µg/mL) | 4 (≈ 1.95 µg/mL) | 4 (≈ 1.95 µg/mL) | 4 (≈ 1.95 µg/mL) | 8 (≈ 3.9 µg/mL) | 4 (≈ 1.95 µg/mL) | CN1CCN(c2cc(-c3cnc(N4CCN(C)CC4)nc3)c3nc(-c4cccc(F)c4)cn3n2)CC1 | 4.7 | 5.5 | 10.5 | 
> 16 | > 16 | > 16 | > 16 | > 16 | > 16 | > 16 | 16 (≈ 8.76 µg/mL) | 8 (≈ 4.38 µg/mL) | 16 (≈ 8.76 µg/mL) | OCCN1CCN(c2cc(-c3cnc(N4CCN(CCO)CC4)nc3)c3nc(-c4ccccc4F)cn3n2)CC1 | 3.8 | 0.8 | 1.4 | 
4 (≈ 1.71 µg/mL) | 4 (≈ 1.71 µg/mL) | 8 (≈ 3.41 µg/mL) | 8 (≈ 3.41 µg/mL) | 8 (≈ 3.41 µg/mL) | 4 (≈ 1.71 µg/mL) | 8 (≈ 3.41 µg/mL) | 4 (≈ 1.71 µg/mL) | 16 (≈ 6.82 µg/mL) | 4 (≈ 1.71 µg/mL) | CN1CCN(c2cc(-c3ccc4[nH]ccc4c3)c3nc(-c4ccc(F)cc4)cn3n2)CC1 | 3.4 | 2.6 | 9 | 
8 (≈ 3.41 µg/mL) | 8 (≈ 3.41 µg/mL) | 16 (≈ 6.82 µg/mL) | 8 (≈ 3.41 µg/mL) | 8 (≈ 3.41 µg/mL) | 8 (≈ 3.41 µg/mL) | 8 (≈ 3.41 µg/mL) | 16 (≈ 6.82 µg/mL) | 8 (≈ 3.41 µg/mL) | 16 (≈ 6.82 µg/mL) | CN1CCN(c2cc(-c3cccc4[nH]ccc34)c3nc(-c4cccc(F)c4)cn3n2)CC1 | 1.8 | 4.8 | 10.1 | 

The next lines start with the compound.

Compound | MIC (Madurella mycetomatis [2]) [µM] | MIC (Madurella mycetomatis [3]) [µM] | MIC (Madurella mycetomatis [4]) [µM] | MIC (Madurella mycetomatis [6]) [µM] | MIC (Madurella mycetomatis [7]) [µM] | MIC (Madurella mycetomatis [8]) [µM] | MIC (Madurella mycetomatis [9]) [µM] | MIC (Madurella mycetomatis [10]) [µM] | MIC (Madurella mycetomatis [1]; Madurella mycetomatis, MM55) [µM] | MIC (Madurella mycetomatis [12]) [µM] | IC50 (Madurella mycetomatis [1]; Madurella mycetomatis, MM55) [µM] | selectivity ratio [5] | IC50 at 5 days [11] [µM] | IC50 (Madurella mycetomatis [1]) [µM]
CN1CCN(c2cc(-c3cccc4[nH]ccc34)c3nc(-c4ccccc4F)cn3n2)CC1 |  |  |  |  |  |  |  |  |  |  | 9.2 |  |  | 
CC(C)CCn1cc(-c2cc(N3CCN(C)CC3)nn3cc(-c4ccc(F)cc4)nc23)cn1 |  |  |  |  |  |  |  |  |  |  | 10.3 |  |  | 
OCCN1CCN(c2cc(-c3ccsc3)c3nc(-c4ccc(F)cc4)cn3n2)CC1 |  |  |  |  |  |  |  |  |  |  | 5.3 |  |  | 
CN1CCN(c2cc(-c3cccc4[nH]ccc34)c3nc(-c4ccc(F)cc4)cn3n2)CC1 |  |  |  |  |  |  |  |  |  |  |  |  |  | 10.6
OCCN1CCN(c2cc(-c3cccc4[nH]ccc34)c3nc(-c4ccc(F)cc4)cn3n2)CC1 |  |  |  |  |  |  |  |  |  |  | > 16 |  |  | 
COc1ccccc1-c1cn2nc(N3CCN(C)CC3)cc(-c3ccsc3)c2n1 |  |  |  |  |  |  |  |  |  |  | 5.8 |  |  | 
COc1ccccc1-c1cn2nc(N3CCN(C)CC3)cc(-c3cccc4[nH]ccc34)c2n1 |  |  |  |  |  |  |  |  |  |  | > 16 |  |  | 
CN1CCN(c2cc(-c3ccsc3)c3nc(-c4ccc(F)cc4)cn3n2)CC1 [listing 1 of 2 here] |  |  |  |  |  |  |  |  |  |  |  |  |  | 5.5
CN1CCN(c2cc(-c3ccc4cc[nH]c4c3)c3nc(-c4ccc(F)cc4)cn3n2)CC1 |  |  |  |  |  |  |  |  |  |  | 7.1 |  |  | 
CN1CCN(c2cc(-c3cccc4[nH]ccc34)c3nc(-c4ccccc4)cn3n2)CC1 [listing 2 of 2 here] |  |  |  |  |  |  |  |  |  |  | 8.3 |  |  | 
CN1CCN(c2cc(-c3ccsc3)c3nc(-c4ccc(F)cc4)cn3n2)CC1 [listing 2 of 2 here] |  |  |  |  |  |  |  |  |  |  | 5 |  |  | 
CN1CCN(c2cc(-c3cccs3)c3nc(-c4ccc(F)cc4)cn3n2)CC1 |  |  |  |  |  |  |  |  |  |  | 8.5 |  |  | 
CN1CCN(c2cc(-c3ccc(N)nc3)c3nc(-c4ccccc4F)cn3n2)CC1 |  |  |  |  |  |  |  |  |  |  | 9.8 |  |  | 
CN1CCN(c2cc(-c3cnn(C)c3)c3nc(-c4ccc(F)cc4)cn3n2)CC1 [listing 2 of 2 here] |  |  |  |  |  |  |  |  |  |  |  |  |  | 9.5
